Source: patent US20250388623A1, “PEPTIDE INHIBITOR AND USE THEREOF” (CHENGDU BRILLIANT INSPIRATION BIOTHERAPEUTICS CO., LTD, priority 2022, published 2025)
Bridge positions count the residues as written; N and C are the ends. Peptide text beside a SMILES is read from it.

Key:
[1] = test system: TSP-1-dependent TGF-β activation; assay: TSP-1-dependent TGF-β activation in PMA-differentiated THP-1 cells with 293-TGFβ Res reporter cells; format: cell-based; settings: 100 μM polypeptide, 24 h; ratio to negative control group (1.00)
Procedure: In this Example, the inhibitory effects of the polypeptides on TSP-1-dependent TGF-β activation were detected using a model based on a high TSP-1 expressing cell. In the assay, THP-1 cells (American Typical Culture Collection, ATCC, TIB-20) were induced by phorbol ester (Phorbol 12-myristate 13-acetate, PMA) (Sigma, Catalog No. P1585) and differentiated into macrophage-like cells with distinct macrophage expression profiles.
The experiment was performed as follows: THP-1 cells were inoculated in a 96-well plate, and treated with 300 nM PMA for differentiation and adherence to form macrophage-like cells. 100 μM polypeptide was added (For the negative control group, an equal volume of PBS (the solvent for the polypeptide) was added, while the positive control group received an equal concentration of the polypeptide shown in SEQ ID NO: 50.) The cells were treated for 24 hours, and then a 293 reporter cell strain, 293-TGFβ Res cell strain (novoprotein, Catalog No. XCC03-1), was added for detecting TGF-β activity, and co-cultivated for 24 hours. Bio-Lite Luciferase Assay lysate comprising fluorescent substrate (Vazyme, Catalog No. DD1201-01) was added, and the fluorescent intensity was detected using a multifunctional microplate reader (TECAN, model Infinite 200 Pro). The inhibitory effect of the polypeptide on TGF-β activation was assessed by calculating the ratio of the fluorescence signal from the polypeptide-treated groups to that of the negative control group.

[2] = test system: mouse lung fibrosis model induced by bleomycin (BLM); assay: Hydroxyproline (HYP) content / collagen deposition in lung, BLM mouse fibrosis model; format: in vivo; settings: 3 mg/kg intratracheal twice weekly x4 from Day 8, Day 21, BLM model group = 100.00
Procedure: This Example was to evaluate the inhibitory effect of polypeptides on collagen deposition in fibrotic tissues. In this example, 6- to 8-week-old male C57/6J mice weighing 18-20 g were used as subjects for the study. The experimental animals were randomized into groups, eight animals in each group. On the day of modeling (Day 1), a 0.7 USP/kg dose of bleomycin solution was administered via the tracheal route to induce the model. Treatment dosing started on Day 8. Each peptide-treated group received the peptide drug intratracheally at a dosage of 3 mg/kg, administered twice weekly for a total of four doses. The BLM model group received an equal volume of solvent (saline) as a control. The administration procedure followed that described in Example 4. Day 21 was set as the experimental endpoint for assessing the degree of fibrosis in the model.
On Day21, the animals were dissected to collect lung tissues, and after grinding the lung tissues in liquid nitrogen, hydroxyproline (HYP) was extracted from the tissue using acid hydrolysis. HYP is a unique amino acid found in collagen, and the determination of HYP content is an important indicator reflecting the metabolism of collagen tissue and the degree of fibrosis. 1 mL of 6N HCl was added per 100 mg of tissue and thoroughly mixed, followed by hydrolysis at 121° C. for 6 hours. The hydrolysate was centrifuged, and the resulting supernatant, along with a gradient of HYP standard solutions (Sigma, Catalog No. V900395-25G) at different concentrations, was used for HYP content determination. To each well of a 96-well plate, 10 μL of the hydrolysate supernatant was added and dried in an oven at 65° C. 100 μL per well of 1.4% chloramine T oxidizing solution (Sigma, Catalog No. 23270-50G) was added, and incubated at room temperature for 15 minutes. 100 μL per well of Ehrlich's color development solution (Solarbio, Catalog No. G1290) was added and incubated at 65° C. for 30 minutes. The absorbance of each sample well was measured at 560 nm (OD560) using a multifunctional microplate reader (TECAN, model Infinite 200 Pro). The total HYP content in the lung tissue from each experimental group was calculated to determine the reduction percentage of HYP content in the peptide-treated group relative to the model group, and the inhibitory effect of the peptide molecule on collagen deposition at the fibrotic site was assessed.

[3] = test system: rat fibrotic disease model (bleomycin); assay: Hydroxyproline (HYP) content / collagen deposition in lung, bleomycin rat fibrosis model; format: in vivo; settings: 2 mg/kg intratracheal twice weekly x4 from Day 1, Day 15, model group = 100.00
Procedure: This Example was to evaluate the inhibitory effect of polypeptides on collagen deposition at the pathological sites of pulmonary fibrosis. 6- to 8-week-old male SD rats weighing 200 to 220 g were used as subjects for the study. The experimental animals were randomized into groups, 8 animals in each group. On the day of modeling (Day 1), a single dose of 1.8 USP/kg of bleomycin solution was administered via the tracheal route to the model group and each peptide-treated group to induce the model. Starting on Day 1, each peptide-treated group received intratracheal administration of the peptide at a dosage of 2 mg/kg, with a dosing frequency of twice a week, for a total of four administrations. The model group received an equal volume of solvent (saline) as a control, with the volume being 100 μL. The procedure followed that described in Example 4. Day 15 was set as the experimental endpoint for assessing the degree of fibrosis in the model.
On Day 15, the animals were dissected to collect lung tissues. After grinding the rat lung tissues in liquid nitrogen, total hydroxyproline (HYP) was extracted from the tissues using acid hydrolysis, and the HYP content was determined by chloramine T oxidation colorimetry. 1 mL of 6N HCl was added per 100 mg of tissue and thoroughly mixed, followed by hydrolysis at 121° C. for 6 hours. The hydrolysate was centrifuged, and the resulting supernatant was used for HYP content determination. To a 96-well plate, the hydrolysate supernatant, or a gradient of HYP standard solutions (Sigma, Catalog No. V900395-25G) at different concentrations, was added in 10 μL per well, and dried in an oven at 65° C. 100 μL per well of 1.4% chloramine T oxidizing solution (Sigma, Catalog No. 23270-50G) was added, and incubated at room temperature for 15 minutes. 100 μL per well of Ehrlich's color development solution (Solarbio, Catalog No. G1290) was added and incubated at 65° C. for 30 minutes. The absorbance of each sample well was measured at 560 nm (OD560) using a multifunctional microplate reader (TECAN, model Infinite 200 Pro). The total HYP content in the lung tissue from each experimental group was calculated to determine the reduction percentage of HYP content in the peptide-treated group relative to the model group, and the inhibitory effect of the peptide molecule on collagen deposition at the fibrotic site was assessed.

C[C@@H]1NC(=O)[C@H]([C@@H](C)O)NC(=O)[C@H](CC(N)=O)NC(=O)[C@H](CC(=O)O)NC(=O)[C@H](CCC(=O)O)NC(=O)[C@@H]2CCCN2C(=O)[C@H](CC(=O)O)NC(=O)[C@H](CCC(N)=O)NC(=O)[C@H]([C@@H](C)O)NC(=O)[C@H](CO)NC1=O [SEQ ID NO: 46, cyclo[Thr-Gln-Asp-Pro-Glu-Asp-Asn-Thr-Ala-Ser]] (cyclo(ASTQDPEDNT))
Mean (relative fluorescence intensity) [1]: 0.69
HYP content in lung tissue relative to model group, Mean (%) [2]: 80.16%
HYP content in lung tissue relative to model group, Mean (%) [3]: 66.46%

Ac-TQDAEDNTASH-NH2 [SEQ ID NO: 33, Ac-Thr-Gln-Asp-Ala-Glu-Asp-Asn-Thr-Ala-Ser-His-NH2]
Mean (relative fluorescence intensity) [1]: 0.67
HYP content in lung tissue relative to model group, Mean (%) [2]: 82.23%
HYP content in lung tissue relative to model group, Mean (%) [3]: 80.28%

CC(=O)N[C@H](C(=O)N[C@H]1CSSC[C@@H](C(=O)O)NC(=O)[C@H](CC(N)=O)NC(=O)[C@H](CC(=O)O)NC(=O)[C@H](CCC(=O)O)NC(=O)[C@H](C)NC(=O)[C@H](CC(=O)O)NC1=O)[C@@H](C)O [SEQ ID NO: 43, Ac-Thr-cyclo[Cys-Asp-Ala-Glu-Asp-Asn-Cys]] (Ac-TCDAEDNC-OH; disulfide 2-8)
Mean (relative fluorescence intensity) [1]: 0.65
HYP content in lung tissue relative to model group, Mean (%) [2]: 72.18%
HYP content in lung tissue relative to model group, Mean (%) [3]: 72.91%

C[C@@H]1NC(=O)[C@H](CC(=O)O)NC(=O)[C@H](CCC(N)=O)NC(=O)[C@H]([C@@H](C)O)NC(=O)[C@H](CC(N)=O)NC(=O)[C@H](CC(=O)O)NC(=O)[C@H](CCC(=O)O)NC1=O [SEQ ID NO: 40, cyclo[Thr-Gln-Asp-Ala-Glu-Asp-Asn]] (cyclo(AEDNTQD))
Mean (relative fluorescence intensity) [1]: 0.77
HYP content in lung tissue relative to model group, Mean (%) [2]: 77.88%
HYP content in lung tissue relative to model group, Mean (%) [3]: 72.93%

Ac-TQDAEDPTAS-NH2 [SEQ ID NO: 25, Ac-Thr-Gln-Asp-Ala-Glu-Asp-Pro-Thr-Ala-Ser-NH2]
Mean (relative fluorescence intensity) [1]: 0.73
HYP content in lung tissue relative to model group, Mean (%) [2]: 77.75%
HYP content in lung tissue relative to model group, Mean (%) [3]: 81.45%

Ac-TQDAEDN-NH2 [SEQ ID NO: 06, Ac-Thr-Gln-Asp-Ala-Glu-Asp-Asn-NH2]
Mean (relative fluorescence intensity) [1]: 0.65
HYP content in lung tissue relative to model group, Mean (%) [2]: 79.51%
HYP content in lung tissue relative to model group, Mean (%) [3]: 80.30%

CC(=O)N[C@H](C(=O)N[C@H]1CSSC[C@@H](C(N)=O)NC(=O)[C@H](CC(N)=O)NC(=O)[C@H](CC(=O)O)NC(=O)[C@H](CCC(=O)O)NC(=O)[C@H](C)NC(=O)[C@H](CC(=O)O)NC1=O)[C@@H](C)O [SEQ ID NO: 44, Ac-Thr-cyclo[Cys-Asp-Ala-Glu-Asp-Asn-Cys]-NH2] (Ac-TCDAEDNC-NH2; disulfide 2-8)
Mean (relative fluorescence intensity) [1]: 0.43
HYP content in lung tissue relative to model group, Mean (%) [2]: 78.25%
HYP content in lung tissue relative to model group, Mean (%) [3]: 65.55%

Ac-TQDPEDNTAS-NH2 [SEQ ID NO: 26, Ac-Thr-Gln-Asp-Pro-Glu-Asp-Asn-Thr-Ala-Ser-NH2]
Mean (relative fluorescence intensity) [1]: 0.68
HYP content in lung tissue relative to model group, Mean (%) [2]: 72.07%
HYP content in lung tissue relative to model group, Mean (%) [3]: 78.75%

Ac-TQDAEDPTA-NH2 [SEQ ID NO: 22, Ac-Thr-Gln-Asp-Ala-Glu-Asp-Pro-Thr-Ala-NH2]
Mean (relative fluorescence intensity) [1]: 0.74
HYP content in lung tissue relative to model group, Mean (%) [2]: 72.66%
HYP content in lung tissue relative to model group, Mean (%) [3]: 68.30%
